Assay: Human HepG2 cell viability assay in 384 well format
Assay type: toxicity, cell-based
Design: dose 125 nL, time 70.5 hour; cytotoxicity at 70.5 h: concentration not given beside the values
Details: HepG2 cells, read-out: Inhibition

SMILES | cytotoxicity at 70.5 h
O=C(C1CCCC1)N1CCC(c2ccnc(Nc3cnccn3)n2)C1 (centres undefined) | 15%
CC(C)(N)C(=O)N1CCCC(c2cncc(Oc3cccnc3)n2)C1 (centres undefined) | -3.9%
Cc1ccc(-c2cccc(CC3(C(=O)O)CCOCC3)c2)c(C)c1 | -5.38%
CN(C)CCn1c([C@H]2CCCO2)cc2cccnc21 | -2.03%
Cc1ccc2c(c1)CN(C(=O)c1cccs1)C(CN(C)C)CO2 (centres undefined) | -2.45%
OC1(Cn2ccc3ncccc32)CCN(Cc2cccnc2)CC1 | -2.24%
CCn1ncc(CN2CCC(O)(Cn3ccc4ncccc43)CC2)c1C | -1.63%
CC(C)C(=O)NC1CCCc2nc(N3CCOCC3)ncc21 (centres undefined) | -0.959%
O=C(NC1CCCc2nc(N3CCOCC3)ncc21)C1CCCCC1 (centres undefined) | 13.8%
Cc1ccc(=O)n(CC2(O)CCN(Cc3ccoc3)CC2)n1 | -3.06%
O=C(NC1CCCc2nc(N3CCCCC3)ncc21)C1CCCC1 (centres undefined) | -4.53%
Cc1ccccc1-c1cc(CC2(C(=O)O)CCOCC2)on1 | -6.86%
O=C(c1cccs1)N1CCCC(c2cc(C(F)F)n3ncnc3n2)C1 (centres undefined) | 0.957%
O=C(O)C1(Cc2cc(-c3ccc(F)cc3)no2)CCOCC1 | 8.42%
OCC1CCCN(Cc2c(C3CCCC3)[nH]c3ncccc23)C1 (centres undefined) | 13.9%
COc1ccccc1CNc1ncc(-c2cc(C)no2)c(C(C)C)n1 | -9.02%
CC(=O)NC1CCN(C(=O)Nc2ccc(SC(F)F)cc2)CC1 | -4.73%
O=C(Nc1ccc(-c2csnn2)cc1)N1CCC(N2CCCC2)C1 (centres undefined) | -14.2%
CCCC(C)(C)NC(=O)CCN1CCOC1=O | 0.72%
CC(C)COC(=O)N1CCN(C(=O)c2ccc3nccn3c2)CC1 | 30.9%
COc1cccc(CC(C)NC(=O)c2ccc(CNC(C)=O)cc2)c1 (centres undefined) | -2.82%
CC(C)Cc1cc(C(=O)N2CCCN(c3ncccn3)CC2)[nH]n1 | -1.63%
CC(C)CCC(=O)N1CCN(C(=O)c2ccc3nccn3c2)CC1 | 15.2%
Cc1nccn1-c1ccc(CNS(=O)(=O)N2CCCC(C)C2)cn1 (centres undefined) | -4.59%

SMILES | cytotoxicity at 70.5 h
Cc1nccn1-c1ccc(CNS(=O)(=O)N2CCC(C)CC2)cn1 | 25.9%
CC1CN(C(=O)c2nccnc2N)c2ccc(F)cc2O1 (centres undefined) | 1.2%
Cc1ccc2cccc(C(=O)NCC3CCN(C(C)C)C3)c2n1 (centres undefined) | 12%
COc1cccc(CC(C)NC(=O)NCc2ccn(C)c2)c1 (centres undefined) | 0.709%
O=C(CCc1ccccn1)NC1CCN(c2cccc(Cl)c2)C1 (centres undefined) | 39.6%
CCOCC1CCN(C(=O)Nc2ccc(-c3csnn3)cc2)C1 (centres undefined) | -11.9%
Cc1ccc(CC(=O)NC2CCN(c3cccc(Cl)c3)C2)cn1 (centres undefined) | 22.6%
O=C(c1cnc(NCc2sccc2Br)c(Cl)c1)N1CCCCC1 | -9.35%
CCNC(=O)NC(C)(C)C(=O)NCCc1csc2ccccc12 | 2.01%
COc1cccc(CC(C)NC(=O)NCCc2cccnc2)c1 (centres undefined) | -8.55%
O=C(Cc1cccc(O)c1)NC1CCN(c2cccc(Cl)c2)C1 (centres undefined) | -3.87%
O=C(NCCN1CCCCCC1)c1cccc(Cl)c1Cl | 1.51%
Cc1nc(CNCc2ccc(N3CCN(C)CC3)nc2)cs1 | 16.7%
COc1ccc(CNC(=O)c2ccc(=O)n(C)c2)cc1C | -9.61%
CC(C)OCCC1CCCCN1S(N)(=O)=O (centres undefined) | 10.9%
COc1ccc(Cl)cc1CS(=O)(=O)CC(=O)NC(C)CCC(C)C (centres undefined) | -11.8%
Cc1ccc(N2N=C(C(=O)N(C)Cc3ccco3)NCC2=O)cc1 | 4.87%
COc1ccc(C(O)CNC(=O)Cn2ccc(=O)n(C)c2=O)cc1 (centres undefined) | -5.99%
CCN(C(=O)C1=NN(c2ccccc2)C(=O)CN1)c1ccccc1 | -2.62%
CNC(=O)C1CCCCN1C(=O)c1sc(-c2ccc(C)o2)nc1C (centres undefined) | 3.27%
CNC(=O)C1CCCCN1C(=O)c1csc(-c2ccccc2)n1 (centres undefined) | -9.17%
NC(=O)C(NCCc1ccc(Cl)s1)c1ccccc1 (centres undefined) | -11.4%
Cc1nc(-c2ccncc2)nc(N(C)CCc2ccncc2)c1C | 4.43%
O=C(CCNC(=O)C1=Cc2ccccc2OC1)NCc1ccncc1 | -2.01%

SMILES | cytotoxicity at 70.5 h
CS(=O)(=O)CCC(=O)N1CCC(c2cccc(F)c2)C1 (centres undefined) | 5.28%
CCOCCNCC1CCN(CCO)CC1 | -3.07%
COc1nc(N2CCN(C(C)=O)CC2)ncc1Br | -3.12%
Cc1nonc1NC(=O)CCn1cc(Br)ccc1=O | 6.64%
CCOc1cc(CNc2cc(-c3nc(C)no3)ccn2)ccc1OC | 1.28%
CNC(=O)Cc1noc(-c2cc3c(s2)CCCCCC3)n1 | -7.62%
CNS(=O)(=O)CC(=O)N1CCC(c2ccc(F)c(F)c2)CC1 | 0.695%
CCC1COCCN1C(=O)CNC(=O)c1ccsc1 (centres undefined) | -8.2%
CC(NS(=O)(=O)N(C)C(C)C)C(=O)N(C)C (centres undefined) | -4.6%
CN(CCOCC(F)(F)F)CC1CCN(CCO)CC1 | 16.2%
CCCN(CCC)S(=O)(=O)NC(C)C(=O)N(C)C (centres undefined) | -6.45%
CC(O)CN1CCC(CNCCOCC(F)(F)F)CC1 (centres undefined) | -7.95%
OCCN1CCC(CNCCOCC(F)(F)F)CC1 | 3.98%
O=C(COC1CCOC1)N(CC(F)F)c1cccc(Cl)c1 (centres undefined) | -3.13%
O=C(CCNCc1cccc(O)c1)N1CCc2sccc2C1 | -7.91%
CS(=O)(=O)NCCCn1ccc2ccccc21 | -13.2%
CCS(=O)(=O)CC(=O)Nc1ccccc1N1CCc2ccccc21 | -13.2%
CC(C)NC(=O)c1ccc(NC(=O)NC(C)c2ccccn2)cc1 (centres undefined) | 19.1%
CC(C)n1cnnc1CNC(=O)CCCOc1ccccc1Cl | -6.43%
CC(C)n1cnnc1CNC(=O)CCCOc1ccccc1F | -11.9%
Cc1nc(CN(C)C(=O)CNC(=O)c2ccc(C#N)cc2)cs1 | -8.22%
CN(C)Cc1nc(C(C)(C)NC(=O)c2cccc3ccccc23)no1 | -7.53%
CC(C)(C)C(=O)NCC(=O)NCC1CCCS1 (centres undefined) | -10.6%
Fc1cccc(C(NCc2ncc[nH]2)c2ccccc2)c1 (centres undefined) | -3.27%

SMILES | cytotoxicity at 70.5 h
CC(C)(C)CC(=O)NCC1CCCS1 (centres undefined) | -8.2%
Cc1ccc(OCC(=O)NC2(C#N)CCSCC2)cc1C | -10.6%
CN1CCN(c2ccc(NCc3ccsc3)cn2)CC1 | -8.79%
CN1CCN(c2ccc(NCc3ccc([S+](C)[O-])cc3)cn2)CC1 (centres undefined) | -0.416%
CNC(=O)NCC(=O)Nc1ccccc1N1CCc2ccccc21 | -3.43%
N#Cc1cc(C(F)(F)F)ccc1NCC1CCS(=O)(=O)CC1 | 16.6%
Cc1nc(NS(=O)(=O)c2ccc(C)c(Br)c2)no1 | -12.1%
COc1ccc(CN(C(=O)C2CCCO2)c2ccncc2)cc1 (centres undefined) | -8.37%
N#Cc1cccc(CNCCC(=O)N2CCc3sccc3C2)c1 | -3.34%
CCc1nnsc1C(=O)NC(CC(C)C)C(=O)OC (centres undefined) | -7.11%
Cc1nc(-c2ccco2)ccc1C(=O)NCCCN1CCOCC1 | -98.3%
Cc1nnc(SCc2cccc(F)c2)n1CC(N)=O | -125%
COc1cccc(CSc2nnc(C)n2CC(N)=O)c1 | -98.4%
Cc1nc(CC(=O)NS(=O)(=O)c2cccc3cnccc23)cs1 | -110%
CCn1nc(C)c(C(=O)N2CCC(Nc3ccc(C)nn3)CC2)c1C | -106%
O=C(OCC1CCN(c2ccccc2)C1)c1cscn1 (centres undefined) | -103%
CCn1c(C)cc(C(=O)N2CCC(NC(=O)c3ccc(C)o3)CC2)c1C | -89.5%
Cc1ncsc1C(=O)OCC1CCN(c2ccccc2)C1 (centres undefined) | -97.5%
CS(=O)(=O)CCN1CCC(Nc2c(Cl)cccc2C#N)CC1 | -94%
CNS(=O)(=O)CC(=O)N1CCCc2cc(C(C)C)ccc21 | -98.6%
Cc1ccc(C(=O)N2CCC3(CCCCC3)C2)c(=O)[nH]1 | -105%
NC(=O)C1=NN2C(=NS(=O)(=O)c3ccccc32)N1 | -106%
Cn1cccc1C(=O)NC(C)(C(N)=O)c1cccc(C(F)(F)F)c1 (centres undefined) | -55.1%
COc1ccc(CNC(=O)N(C)CC(C)(C)O)cc1OC | -109%

SMILES | cytotoxicity at 70.5 h
O=C(Cc1csc(-c2ccccn2)n1)NCCCN1CCCCCC1=O | -76.6%
Cc1nc2n(n1)CC(NCc1nc3ccccc3o1)CC2 (centres undefined) | 1.97%
COc1ncccc1CNC(=O)c1cc(F)cc(Br)c1 | -2.19%
CC(C)(C)C(Cn1ccnc1)NC(=O)NCc1ccco1 (centres undefined) | -7.73%
Cc1cc(C)cc(N(CCC#N)C(=O)CN2CCCC2c2cccs2)c1 (centres undefined) | 25.9%
COc1ccc(CNC(=O)NC2CCN(CC3CCCC3)CC2)cn1 | -9.34%
COc1cc(CNC(=O)Nc2nncs2)ccc1O | -1.98%
O=C1CCN(C(=O)C2(c3ccc(F)cc3)CCOCC2)CCN1 | -8.05%
CCc1noc(C)c1C(=O)NCc1c(C)nn(CCOC)c1C | -4.73%
Cc1nc(CNC2CCc3ncnn3C2)oc1C (centres undefined) | -5.86%
Cc1nc2n(n1)CC(NCc1nc(C)c(C)o1)CC2 (centres undefined) | -0.801%
CC(NC(=O)c1cccc(CN2CCN(C)CC2)c1)c1nccs1 (centres undefined) | 1.61%
CC(Cc1ccccc1Br)NC(=O)CCS(C)(=O)=O (centres undefined) | 27.4%
COC(=O)CCC(=O)NC(C)Cc1ccccc1Br (centres undefined) | -4.19%
CNS(=O)(=O)Cc1cccc(CNc2ccc(Cl)cn2)c1 | 4.33%
CN(Cc1cc(Br)cn1C)C(=O)c1ccon1 | -2.35%
COc1ccc(CNC(=O)N2CCCC(Nc3ccccc3)C2)cn1 (centres undefined) | -7.17%
c1cnc2c(c1)cc([C@@H]1CCCO1)n2CCN1CCCCC1 | 0.422%
c1cnc2[nH]c(C3CCCNC3)c(CN3CCCOCC3)c2c1 (centres undefined) | -5.16%
CNC(=O)C1(CCCc2ccncc2)CCN1 (centres undefined) | -9.29%
COc1ccc(CN(Cc2c[nH]cn2)CC2CCCO2)c(OC)c1 (centres undefined) | -3.26%
COc1ccc(CN(Cc2cncn2C)CC2CCCO2)cc1 (centres undefined) | -7.47%
COc1cccc(CN2C[C@@H]3CC[C@@](O)(c4ccccn4)[C@@H]3C2)c1OC | 12.8%

— ChEMBL document CHEMBL3507680, “University of Dundee, Gates Library screen for HepG2 cell viability”
